Where two headings read alike, the source gives them in different places.
Key:
[1] = Gibbs free energy of ion transfer and ion transfer potentials across the water and DCE phase; type: physicochemical
Text: The Gibbs free energy of ion transfer and the ion transfer potentials for relevant ions across the water and DCE phase were studied.

[2] = transfer from water to DCE; cited from earlier work
[3] = type: physicochemical; details: aqueous phase None; cathode in aqueous, anode in DCE (per FIG. 23C, 24D-F); 5 mA, 5 min
Method: E) The cathode was placed in an aqueous phase containing no phase-transfer agent, and the anode was placed in DCE containing 0.1 M [NBu4][Br]. F) The cathode was placed in an aqueous phase containing no phase-transfer agent, and the anode was placed in DCE containing 0.1 M [NHx][ClO4].
All experiments were performed using bi-phasic systems consisting of immiscible solutions, such as 1,2-dichloroethane and water. Before experimentation, a platinum wire (r=1 mm) was sealed within a cell while maintaining an electrical connection. […] A secondary platinum wire (r=1 mm) was then submerged into the aqueous top layer to complete the circuit and allow for current to flow. Upon submersion, a current was then applied across the system using DC power supply. Current was maintained at 5 mA for a total duration of 5 min. Solutions were allowed to rest for an additional 5 minutes before additional experimentation or measurement.
The droplet sizes were measured. In these measurements, the resulting top layer and bottom layer from the prior section were allowed to rest for 5 minutes and were then transferred to a 1 cm glass cuvette. After transfer, the cuvette was inserted into the DLS instrumentation and was allowed to perform dynamic light scatter measurements to determine the size and intensity of the droplets formed during electro-emulsification. […]

Compound | Δφw→DCE^0 (standard ion transfer potential) ([1]; transfer from water to DCE) | ΔGw→DCE^0 (standard Gibbs free energy of ion transfer) [2] | Δφw→DCE^0 (standard ion transfer potential) [1] | Average Size (d · nm) N = 3 [3] | Zeta Potential [3]
Br [Br^−] | −399 mV | 9.2 kcal/mol | – | – | –
[O-][Cl+3]([O-])([O-])O [ClO4^−] | −178 mV | 4.11 kcal/mol | – | – | –
CCCC[N+](CCCC)(CCCC)CCCC [NBu4^+, tetrabutylammonium] | 226 mV | – | – | – | –
CC[N+](CC)(CC)CC [NEt4^+, tetraethylammonium] | – | – | −44 mV | – | –
F[P-](F)(F)(F)(F)F [PF6^−] | −90 mV | 2.08 kcal/mol | – | – | –
CCCCCC[N+](CCCCCC)(CCCCCC)CCCCCC.[O-][Cl+3]([O-])([O-])[O-] [[NHx4][ClO4], tetrahexylammonium perchlorate] | – | – | – | 3477 nm | −6.031 mV

The next lines start with results.

Δφw→DCE^0 (standard ion transfer potential) ([1]; transfer from water to DCE) | Compound | ΔGw→DCE^0 (standard Gibbs free energy of ion transfer) [2] | Δφw→DCE^0 (standard ion transfer potential) [1] | Average Size (d · nm) N = 3 [3] | Zeta Potential [3]
−481 mV | Cl [Cl^−] | 11.1 kcal/mol | – | – | –
−627 mV | [H+] [H^+] | 14.5 kcal/mol | – | – | –
−548 mV | [K+] [K^+] | 12.6 kcal/mol | – | – | –
−610 mV | [Na+] [Na^+] | 14.1 kcal/mol | – | – | –

From US20240246042A1, “METHOD FOR EMULSIFICATION USING IONIC FLUX” (Purdue Research Foundation, priority 2023, published 2024)
